Values after ≈ are worked out from the molar mass of the structure shown. Read-outs that look alike come from different tables or passages of the source.
Legend:
Hela cells = assay: Cloning efficiency of Hela cells in vitro (colony inhibition); type: cell-based; settings: Homo sapiens
Protocol: After treatment for 2, 8 and 24 hours, Hela cells were seeded (200 cells per plate) and the number of colonies determined 8 days later. The inhibiting dose (ID50) represents the does which produces a 50% inhibition of colonies.
^a cloning efficiency of Hela cells

[1] = test system: Moloney Sarcoma Virus (MSV); assay: Formation of foci by Moloney Sarcoma Virus (MSV) in vitro (antiviral action); type: cell-based; settings: Fibroblast, 72 h, read-out: Antiviral action ID50
Protocol: (§1) The test compound was evaluated on mouse embryo fibroblast (MEF) cultures infected with MSV and on similar uninfected cultures. After a treatment of three days the inhibiting doses (ID50) were evaluated on cell proliferation in uninfected cultures (cytotoxic action) and on MSV foci formation in infected cultures (antiviral action).
^b inhibition of MSV foci formation

[2] = Proliferation of uninfected mouse embryo fibroblast (MEF) cultures (cytotoxic action); type: cell-based; settings: mouse, mouse embryo fibroblasts; uninfected MEF, three days treatment; Table 2; read-out: Cytotoxic action ID50
Protocol: as §1
(§2) ^c inhibition of mouse embryo fibroblasts proliferation

[3] = test system: mouse embryo fibroblast (MEF) cultures; assay: as above; type: cell-based
Protocol: as §1, §2

[4] = test system: Ascites lymphocitic P 388 Leukemia; assay: Ascites lymphocitic P 388 Leukemia in CDF1 mice, i.p. treatment days 1-9; type: in vivo, mouse (male CDF1); settings: for Tumor evaluation, median survival time: control 12.1 days

SMILES: COc1cccc2c1C(=O)c1c(O)c3c(c(O)c1C2=O)C[C@@](O)(C(C)=O)C[C@@H]3O[C@H]1C[C@@H](N)[C@@H](O)[C@H](C)O1 [3'-4'-epi-daunomycin, 3',4'-epi-daunomycin]
- IC50 (Hela cells; 2 h, read-out: ID50 (action on Hela cells), 2 hours treatment, Table 1): 270 µg/mL (≈ 512 µM)
- IC50 (Hela cells; 8 h, read-out: ID50 (action on Hela cells), 8 hours treatment, Table 1): 220 µg/mL (≈ 417 µM)
- IC50 (Hela cells; 24 h, read-out: ID50 (action on Hela cells), 24 hours treatment, Table 1): 190 µg/mL (≈ 360 µM)
- IC50 [1]: 0.045 µg/mL (≈ 0.0853 µM)
- CC50 at 72 h [2]: 0.09 µg/mL (≈ 0.171 µM)
- cytotoxic activity in vitro compared with daunomycin [3]: less cytotoxic acitivity in vitro, when compared with daunomycin
- Toxicity (survivors at fifth day) ([4]; 1.56 mg/kg i.p., days 1-9): 6/6
- Tumor evaluation, T/C % ([4]; 1.56 mg/kg i.p., days 1-9): 129%
- Tumor evaluation, median survival time ([4]; 1.56 mg/kg i.p., days 1-9): 15.7 days
- Toxicity (survivors at fifth day) ([4]; 3.13 mg/kg i.p., days 1-9): 6/6
- Tumor evaluation, T/C % ([4]; 3.13 mg/kg i.p., days 1-9): 142%
- Toxicity (survivors at fifth day) ([4]; 6.25 mg/kg i.p., days 1-9): 6/6
- Tumor evaluation, T/C % ([4]; 6.25 mg/kg i.p., days 1-9): 155%
- Toxicity (survivors at fifth day) ([4]; 12.5 mg/kg i.p., days 1-9): 6/6
- Tumor evaluation, T/C % ([4]; 12.5 mg/kg i.p., days 1-9): 173%
- Tumor evaluation, median survival time ([4]; 12.5 mg/kg i.p., days 1-9): 21 days
- Toxicity (survivors at fifth day) ([4]; 25 mg/kg i.p., days 1-9): 6/6
- Tumor evaluation, T/C % ([4]; 25 mg/kg i.p., days 1-9): 231%
- Tumor evaluation, median survival time ([4]; 25 mg/kg i.p., days 1-9): 28 days
- Cures ([4]; 25 mg/kg i.p., days 1-9, evaluated day 20): 1
- anti-tumor activity in tumor bearing animals ([4]; Table 3): distinct anti-tumor activity
